Key:
MT1 receptor = MT1 receptor (Homo sapiens, UniProt P48039); assay: Melatonin MT1 receptor binding study; conditions: 2-[125I]-iodomelatonin radioligand
Procedure: (§1) The MT1 or MT2 receptor binding experiments are carried out using 2-[^125I]-iodomelatonin as reference radioligand. The radioactivity retained is determined using a liquid scintillation counter.
(§2) Competitive binding experiments are then carried out in triplicate using the various test compounds. A range of different concentrations is tested for each compound. The results enable the binding affinities of the compounds tested (Ki) to be determined.

MT2 receptor = target: T1, MT2 receptor (Homo sapiens, UniProt P49286); assay: Melatonin MT2 receptor binding study; conditions: 2-[125I]-iodomelatonin radioligand
T1 sequence (P49286 1-362): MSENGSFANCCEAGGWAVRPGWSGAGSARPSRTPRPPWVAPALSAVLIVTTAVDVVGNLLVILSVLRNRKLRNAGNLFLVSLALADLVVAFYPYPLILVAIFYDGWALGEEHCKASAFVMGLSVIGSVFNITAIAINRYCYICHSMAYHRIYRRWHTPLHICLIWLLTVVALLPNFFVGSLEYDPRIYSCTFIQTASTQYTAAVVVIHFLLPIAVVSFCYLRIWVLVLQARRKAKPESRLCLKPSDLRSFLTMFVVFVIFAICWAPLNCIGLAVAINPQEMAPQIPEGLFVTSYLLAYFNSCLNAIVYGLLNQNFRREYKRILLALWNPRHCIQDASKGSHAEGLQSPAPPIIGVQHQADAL
Procedure: as §1, §2

human 5-HT2C receptor = target: T2, human 5-HT2C receptor (Homo sapiens, UniProt P28335); assay: Serotoninergic 5-HT2C receptor binding study; conditions: CHO cell membranes, [3H]-mesulergine (1 nM)
T2 construct: expressed in transfected cells
T2 sequence (P28335 33-458): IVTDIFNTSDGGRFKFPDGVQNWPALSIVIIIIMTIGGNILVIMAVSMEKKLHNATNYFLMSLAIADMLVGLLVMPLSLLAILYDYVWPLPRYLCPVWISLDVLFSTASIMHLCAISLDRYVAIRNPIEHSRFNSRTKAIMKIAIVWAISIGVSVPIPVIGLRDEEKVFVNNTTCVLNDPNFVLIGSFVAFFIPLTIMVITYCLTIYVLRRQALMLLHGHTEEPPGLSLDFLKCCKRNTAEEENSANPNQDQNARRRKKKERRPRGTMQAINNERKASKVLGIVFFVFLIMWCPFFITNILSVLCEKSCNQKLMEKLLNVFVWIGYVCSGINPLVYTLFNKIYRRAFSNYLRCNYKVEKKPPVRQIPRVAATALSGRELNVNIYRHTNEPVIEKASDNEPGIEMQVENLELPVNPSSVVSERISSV
Procedure: The affinity of the compounds for the human 5-HT2C receptor is evaluated on membrane preparations from CHO cells stably expressing that receptor.
Incubation is carried out in 50 mM TRIS buffer, pH 7.4, containing 10 mM MgCl2 and
0.1% BSA, in the presence of [^3H]-mesulergine (1 nM) and 25 fmol/ml of receptor. Non-specific binding is determined in the presence of 10 μM mianserin.
The reaction is stopped by the addition of 50 mM TRIS buffer, pH 7.4, followed by a filtration step and 3 successive rinses: the radioactivity bound to the membranes remaining on the filters (GF/B pretreated with 0.1% PEI) is determined by liquid scintillation counting.

Chain of MT1 receptor (P48039 whole entry): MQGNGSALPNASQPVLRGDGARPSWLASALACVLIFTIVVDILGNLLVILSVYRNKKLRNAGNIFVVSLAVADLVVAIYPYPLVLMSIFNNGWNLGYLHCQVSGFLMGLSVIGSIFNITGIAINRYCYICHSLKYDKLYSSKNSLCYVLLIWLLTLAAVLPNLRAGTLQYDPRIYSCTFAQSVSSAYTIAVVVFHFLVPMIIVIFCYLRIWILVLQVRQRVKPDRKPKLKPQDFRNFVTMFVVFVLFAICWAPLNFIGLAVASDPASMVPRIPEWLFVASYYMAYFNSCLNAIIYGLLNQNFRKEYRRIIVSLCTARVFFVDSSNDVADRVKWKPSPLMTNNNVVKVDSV

Q: For `COc1ccc2cccc(C(CF)CNC(C)=O)c2c1` (stereo not drawn) [Example 5, N-[3-Fluoro-2-(7-methoxy-1-naphthyl)propyl]acetamide], which Ki (MT1 receptor) is on record?
A: Its Ki is 0.1 nM.

Q: And the Ki (MT2 receptor)?
A: The Ki was 0.2 nM.

Q: What about the Ki (human 5-HT2C receptor) of the same molecule?
A: Its Ki is 6000 nM.

From patent US20100137446A1, “NAPHTHALENE COMPOUNDS, A PROCESS FOR THEIR PREPARATION AND PHARMACEUTICAL COMPOSITIONS CONTAINING THEM” (priority 2007, published 2010)
